Results as given in ChEMBL document CHEMBL6071156 (Eur J Med Chem, 2024).
pEC50, pIC50: −log10 of the molar value. Calls of active or inactive are those of the source. The calls are words filed in the database; no cut-off is given here.

Columns and labels:
Chikungunya virus [1] = assay: Antiviral activity against CHIKV S27 in green monkey Vero 76 cells assessed as reduction in virus-induced cytopathic effect; type: functional, organism-based; conditions: S27, Vero 76
[2] = Volume in the terminal state in C57BL/6 mouse plasma at 2.5 mg/kg, iv measured upto 24 hrs post dosing by LC-MS/MS; type: ADME, organism-based; conditions: in vivo
[3] = MRT in C57BL/6 mouse plasma at 2.5 mg/kg, iv measured upto 24 hrs post dosing by LC-MS/MS; type: ADME, organism-based; conditions: in vivo
[4] = Cmax in C57BL/6 mouse plasma at 10 mg/kg, po measured upto 24 hrs post dosing by LC-MS/MS; type: ADME, organism-based; conditions: in vivo
[5] = MRT in C57BL/6 mouse plasma at 10 mg/kg, po measured upto 24 hrs post dosing by LC-MS/MS; type: ADME, organism-based; conditions: in vivo
Chikungunya virus [6] = assay: Antiviral activity against CHIKV infected in C57BL/6 mouse assessed as mouse survival at 300 mg/kg/day, ip measured after 6 days post infection; type: functional, organism-based; conditions: time 6.0 day
Chikungunya virus [7] = assay: Antiviral activity against CHIKV infected in C57BL/6 mouse assessed as mouse survival at 100 mg/kg/day, ip measured after 6 days post infection; type: functional, organism-based; conditions: time 6.0 day
Chikungunya virus [8] = assay: Antiviral activity against CHIKV infected in C57BL/6 mouse assessed as footpad swelling at 100 mg/kg/day, ip measured after 6 days post infection (reference value: 40.9+/-12.4); type: functional; conditions: time 6 day
Chikungunya virus [9] = assay: Antiviral activity against CHIKV infected in C57BL/6 mouse assessed as footpad swelling at 300 mg/kg/day, ip measured after 6 days post infection (Rvb =40.9+/-12.4); type: functional; conditions: time 6 day
Chikungunya virus [10] = assay: Antiviral activity against CHIKV infected in C57BL/6 mouse assessed as virus titers at 300 mg/kg/day, ip measured after 6 days post infection (reference value: 5.3+/0.3); type: functional; conditions: time 6 day
Chikungunya virus [11] = assay: Antiviral activity against CHIKV infected in C57BL/6 mouse assessed as virus titers at 100 mg/kg/day, ip measured after 6 days post infection (reference value: 5.3+/0.3); type: functional; conditions: time 6 day
[12] = Toxicity in C57BL/6 mouse model assessed as effect on ALT level at 300 mg/kg/day, ip measured after 6 days post infection (reference value: 29 to 33); type: organism-based; conditions: in vivo, 144 h, time 6 day
[13] = Toxicity in C57BL/6 mouse model assessed as effect on CREAT level at 300 mg/kg/day, ip measured after 6 days post infection (reference value: 0.39 to 0.43); type: organism-based; conditions: in vivo, 144 h, time 6 day
[14] = Toxicity in C57BL/6 mouse model assessed as effect on TBILI level at 300 mg/kg/day, ip measured after 6 days post infection (reference value: 0.30 to 0.43); type: organism-based; conditions: in vivo, 144 h, time 6 day
[15] = target: Polyprotein P1234 (Chikungunya virus (strain S27-African prototype) (CHIKV)) (UniProt Q8JUX6); conditions: dose 0.27-600 µM, time 2000-8000 sec
Polyprotein P1234 (Chikungunya virus (strain S27-African prototype) (CHIKV)), sequence (Q8JUX6 whole entry): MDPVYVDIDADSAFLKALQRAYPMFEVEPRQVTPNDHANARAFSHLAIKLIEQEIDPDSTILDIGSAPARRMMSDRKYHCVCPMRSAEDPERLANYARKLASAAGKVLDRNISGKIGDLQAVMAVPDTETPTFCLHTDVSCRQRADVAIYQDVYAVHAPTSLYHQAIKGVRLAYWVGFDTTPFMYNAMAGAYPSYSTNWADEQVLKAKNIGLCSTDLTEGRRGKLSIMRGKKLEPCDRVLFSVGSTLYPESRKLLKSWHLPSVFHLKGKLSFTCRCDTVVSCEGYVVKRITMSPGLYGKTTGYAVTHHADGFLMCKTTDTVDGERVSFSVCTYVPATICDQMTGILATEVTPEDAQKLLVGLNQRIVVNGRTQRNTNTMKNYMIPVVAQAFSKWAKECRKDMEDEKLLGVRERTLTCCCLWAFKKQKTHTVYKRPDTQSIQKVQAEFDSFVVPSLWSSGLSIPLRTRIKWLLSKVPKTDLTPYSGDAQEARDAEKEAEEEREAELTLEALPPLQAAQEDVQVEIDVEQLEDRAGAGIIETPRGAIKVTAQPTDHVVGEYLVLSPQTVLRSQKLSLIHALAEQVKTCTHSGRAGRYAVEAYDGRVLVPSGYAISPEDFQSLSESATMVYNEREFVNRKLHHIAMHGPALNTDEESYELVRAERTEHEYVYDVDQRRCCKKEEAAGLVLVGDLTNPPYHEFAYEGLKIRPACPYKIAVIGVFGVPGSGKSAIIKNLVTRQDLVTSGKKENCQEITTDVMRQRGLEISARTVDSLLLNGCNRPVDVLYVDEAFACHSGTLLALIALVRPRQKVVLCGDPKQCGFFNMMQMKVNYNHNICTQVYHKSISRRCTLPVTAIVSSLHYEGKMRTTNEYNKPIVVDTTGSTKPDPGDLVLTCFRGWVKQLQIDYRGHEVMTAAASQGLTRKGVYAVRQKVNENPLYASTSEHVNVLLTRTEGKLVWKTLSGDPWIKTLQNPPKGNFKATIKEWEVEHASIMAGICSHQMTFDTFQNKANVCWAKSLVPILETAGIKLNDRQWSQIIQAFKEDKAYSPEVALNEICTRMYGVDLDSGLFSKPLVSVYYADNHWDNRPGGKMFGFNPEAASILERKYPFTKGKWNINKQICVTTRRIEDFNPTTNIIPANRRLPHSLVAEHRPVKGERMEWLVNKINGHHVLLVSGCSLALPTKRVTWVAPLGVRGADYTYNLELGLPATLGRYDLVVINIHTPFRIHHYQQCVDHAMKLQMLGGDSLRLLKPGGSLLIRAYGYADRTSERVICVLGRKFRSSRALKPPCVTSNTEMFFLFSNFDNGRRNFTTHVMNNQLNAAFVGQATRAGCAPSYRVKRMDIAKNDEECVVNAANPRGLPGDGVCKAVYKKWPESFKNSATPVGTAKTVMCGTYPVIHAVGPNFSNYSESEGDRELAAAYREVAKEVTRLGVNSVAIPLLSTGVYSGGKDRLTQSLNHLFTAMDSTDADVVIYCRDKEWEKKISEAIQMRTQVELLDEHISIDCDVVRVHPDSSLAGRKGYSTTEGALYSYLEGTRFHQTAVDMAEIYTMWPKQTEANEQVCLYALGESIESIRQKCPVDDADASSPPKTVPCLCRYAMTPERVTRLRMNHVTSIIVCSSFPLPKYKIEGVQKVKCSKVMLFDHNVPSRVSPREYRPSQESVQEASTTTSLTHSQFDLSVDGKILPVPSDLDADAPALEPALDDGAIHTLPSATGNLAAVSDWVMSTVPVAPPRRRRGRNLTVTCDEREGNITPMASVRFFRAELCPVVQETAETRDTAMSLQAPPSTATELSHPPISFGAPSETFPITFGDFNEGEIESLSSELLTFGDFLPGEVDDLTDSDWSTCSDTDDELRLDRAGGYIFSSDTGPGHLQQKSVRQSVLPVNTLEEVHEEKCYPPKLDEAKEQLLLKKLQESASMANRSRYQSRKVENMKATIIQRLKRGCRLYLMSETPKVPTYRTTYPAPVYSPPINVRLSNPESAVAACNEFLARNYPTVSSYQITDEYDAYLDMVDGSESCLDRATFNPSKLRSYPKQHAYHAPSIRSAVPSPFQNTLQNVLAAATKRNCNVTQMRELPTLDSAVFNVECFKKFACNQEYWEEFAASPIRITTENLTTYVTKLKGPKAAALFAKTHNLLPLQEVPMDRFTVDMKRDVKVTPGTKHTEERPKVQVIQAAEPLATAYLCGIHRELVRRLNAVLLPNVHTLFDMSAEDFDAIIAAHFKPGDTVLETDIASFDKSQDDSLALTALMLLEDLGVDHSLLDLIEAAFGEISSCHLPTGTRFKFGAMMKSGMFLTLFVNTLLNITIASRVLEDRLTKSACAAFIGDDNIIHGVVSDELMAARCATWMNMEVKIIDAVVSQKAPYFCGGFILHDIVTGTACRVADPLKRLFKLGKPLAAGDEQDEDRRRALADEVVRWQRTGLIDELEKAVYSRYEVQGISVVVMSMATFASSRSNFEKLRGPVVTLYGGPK

[16] = Metabolic stability in human liver microsomes assessed as intrinsic clearance by HPLC-MS/MS analysis; type: ADME, Microsome
[17] = Metabolic stability in CD-1 mouse liver microsomes assessed as half life by HPLC-MS/MS analysis; type: ADME, Microsome
[18] = Metabolic stability in human liver S9 fraction assessed as intrinsic clearance by HPLC-MS/MS analysis; type: ADME, subcellular
Chikungunya virus [19] = assay: Antiviral activity against CHIKV S27 in green monkey Vero 76 cells assessed as reduction in virus yield measured after 3 days by Virus yield reduction assay; type: functional; conditions: S27, Vero 76, 72 h, time 3 day
Cytochrome P450 2C8 = target: T1, Cytochrome P450 2C8 (Homo sapiens, UniProt P10632); assay: Inhibition of CYP2C8 (unknown origin); type: ADME
T1 sequence (P10632 whole entry): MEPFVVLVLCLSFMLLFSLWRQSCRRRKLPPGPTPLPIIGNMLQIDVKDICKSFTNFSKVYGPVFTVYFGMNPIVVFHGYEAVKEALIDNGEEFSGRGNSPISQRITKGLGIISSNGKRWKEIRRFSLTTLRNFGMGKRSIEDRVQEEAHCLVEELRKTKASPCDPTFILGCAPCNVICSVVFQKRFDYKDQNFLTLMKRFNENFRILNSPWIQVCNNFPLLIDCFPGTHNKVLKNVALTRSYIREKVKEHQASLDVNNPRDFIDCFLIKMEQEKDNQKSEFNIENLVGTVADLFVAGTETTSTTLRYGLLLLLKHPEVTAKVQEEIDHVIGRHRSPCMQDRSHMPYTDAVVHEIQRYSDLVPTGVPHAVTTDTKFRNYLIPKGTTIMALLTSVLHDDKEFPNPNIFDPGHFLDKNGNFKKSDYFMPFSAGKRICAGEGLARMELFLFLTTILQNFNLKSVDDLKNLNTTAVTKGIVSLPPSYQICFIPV

Cytochrome P450 2D6 = Cytochrome P450 2D6 (Homo sapiens, UniProt P10635); assay: Inhibition of CYP2D6 (unknown origin); type: ADME
Cytochrome P450 2D6, sequence (P10635 whole entry): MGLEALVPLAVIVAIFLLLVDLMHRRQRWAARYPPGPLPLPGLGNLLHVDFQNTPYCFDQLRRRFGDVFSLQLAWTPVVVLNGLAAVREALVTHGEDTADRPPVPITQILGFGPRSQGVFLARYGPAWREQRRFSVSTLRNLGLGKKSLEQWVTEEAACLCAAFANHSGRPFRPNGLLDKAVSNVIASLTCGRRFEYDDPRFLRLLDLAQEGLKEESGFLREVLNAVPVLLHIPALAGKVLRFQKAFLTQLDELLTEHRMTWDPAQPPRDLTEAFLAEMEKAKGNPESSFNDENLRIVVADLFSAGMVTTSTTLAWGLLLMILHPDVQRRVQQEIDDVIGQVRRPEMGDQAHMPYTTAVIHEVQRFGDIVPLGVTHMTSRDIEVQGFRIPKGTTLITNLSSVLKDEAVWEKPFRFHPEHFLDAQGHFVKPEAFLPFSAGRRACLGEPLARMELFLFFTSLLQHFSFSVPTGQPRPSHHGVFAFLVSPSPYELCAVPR

Cytochrome P450 3A4 = Cytochrome P450 3A4 (Homo sapiens, UniProt P08684); assay: Inhibition of CYP3A4 (unknown origin); type: ADME
Cytochrome P450 3A4, sequence (P08684 whole entry): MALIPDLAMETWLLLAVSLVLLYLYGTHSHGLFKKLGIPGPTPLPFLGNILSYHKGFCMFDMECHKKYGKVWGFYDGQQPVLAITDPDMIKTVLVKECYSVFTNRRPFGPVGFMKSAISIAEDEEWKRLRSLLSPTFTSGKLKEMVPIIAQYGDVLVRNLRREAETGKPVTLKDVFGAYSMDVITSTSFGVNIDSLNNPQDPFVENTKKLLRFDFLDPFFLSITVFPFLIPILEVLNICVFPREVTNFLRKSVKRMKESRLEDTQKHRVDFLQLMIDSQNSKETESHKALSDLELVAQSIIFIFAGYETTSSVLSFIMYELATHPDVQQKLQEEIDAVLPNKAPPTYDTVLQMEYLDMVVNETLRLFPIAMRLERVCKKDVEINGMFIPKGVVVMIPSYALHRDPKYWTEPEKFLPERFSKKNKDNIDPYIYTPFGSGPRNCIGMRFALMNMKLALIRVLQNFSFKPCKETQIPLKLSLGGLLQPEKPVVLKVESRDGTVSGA

Cytochrome P450 3A = Cytochrome P450 3A (Homo sapiens, UniProt P08684+P20815+Q9HB55+P24462); assay: Inhibition of CYP3A in human liver microsomes using testosterone as substrate; type: ADME, Microsome
[20] = target: T2, A-type voltage-gated potassium channel KCND3 (Homo sapiens, UniProt Q9UK17); assay: Antagonist activity at potassium channels hKv4.3/hKChiP2 expressed in HEK293 cells by Electrophysiology; type: toxicity, cell-based
T2 sequence (Q9UK17 whole entry): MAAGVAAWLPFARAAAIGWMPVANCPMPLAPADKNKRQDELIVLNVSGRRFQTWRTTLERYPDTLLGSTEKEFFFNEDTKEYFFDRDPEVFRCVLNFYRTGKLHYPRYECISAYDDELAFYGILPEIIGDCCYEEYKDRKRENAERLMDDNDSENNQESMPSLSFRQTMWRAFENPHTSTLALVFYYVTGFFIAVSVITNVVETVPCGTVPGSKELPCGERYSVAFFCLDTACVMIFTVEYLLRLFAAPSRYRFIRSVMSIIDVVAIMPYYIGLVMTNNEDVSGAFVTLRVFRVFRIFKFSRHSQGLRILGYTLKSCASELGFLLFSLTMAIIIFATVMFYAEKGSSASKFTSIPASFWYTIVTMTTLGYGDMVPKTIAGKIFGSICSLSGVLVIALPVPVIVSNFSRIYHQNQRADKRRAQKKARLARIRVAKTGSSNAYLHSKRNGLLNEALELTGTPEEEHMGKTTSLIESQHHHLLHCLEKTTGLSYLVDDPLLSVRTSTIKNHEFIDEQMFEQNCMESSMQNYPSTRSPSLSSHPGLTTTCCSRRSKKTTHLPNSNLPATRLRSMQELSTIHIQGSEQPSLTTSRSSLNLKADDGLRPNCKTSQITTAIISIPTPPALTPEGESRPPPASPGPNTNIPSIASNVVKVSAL

[21] = target: Voltage-gated inwardly rectifying potassium channel KCNH2 (Homo sapiens, UniProt Q12809); assay: Antagonist activity at recombinant hERG expressed in CHO-K1 cells by Electrophysiology; type: toxicity, cell-based
Voltage-gated inwardly rectifying potassium channel KCNH2, sequence (Q12809 whole entry): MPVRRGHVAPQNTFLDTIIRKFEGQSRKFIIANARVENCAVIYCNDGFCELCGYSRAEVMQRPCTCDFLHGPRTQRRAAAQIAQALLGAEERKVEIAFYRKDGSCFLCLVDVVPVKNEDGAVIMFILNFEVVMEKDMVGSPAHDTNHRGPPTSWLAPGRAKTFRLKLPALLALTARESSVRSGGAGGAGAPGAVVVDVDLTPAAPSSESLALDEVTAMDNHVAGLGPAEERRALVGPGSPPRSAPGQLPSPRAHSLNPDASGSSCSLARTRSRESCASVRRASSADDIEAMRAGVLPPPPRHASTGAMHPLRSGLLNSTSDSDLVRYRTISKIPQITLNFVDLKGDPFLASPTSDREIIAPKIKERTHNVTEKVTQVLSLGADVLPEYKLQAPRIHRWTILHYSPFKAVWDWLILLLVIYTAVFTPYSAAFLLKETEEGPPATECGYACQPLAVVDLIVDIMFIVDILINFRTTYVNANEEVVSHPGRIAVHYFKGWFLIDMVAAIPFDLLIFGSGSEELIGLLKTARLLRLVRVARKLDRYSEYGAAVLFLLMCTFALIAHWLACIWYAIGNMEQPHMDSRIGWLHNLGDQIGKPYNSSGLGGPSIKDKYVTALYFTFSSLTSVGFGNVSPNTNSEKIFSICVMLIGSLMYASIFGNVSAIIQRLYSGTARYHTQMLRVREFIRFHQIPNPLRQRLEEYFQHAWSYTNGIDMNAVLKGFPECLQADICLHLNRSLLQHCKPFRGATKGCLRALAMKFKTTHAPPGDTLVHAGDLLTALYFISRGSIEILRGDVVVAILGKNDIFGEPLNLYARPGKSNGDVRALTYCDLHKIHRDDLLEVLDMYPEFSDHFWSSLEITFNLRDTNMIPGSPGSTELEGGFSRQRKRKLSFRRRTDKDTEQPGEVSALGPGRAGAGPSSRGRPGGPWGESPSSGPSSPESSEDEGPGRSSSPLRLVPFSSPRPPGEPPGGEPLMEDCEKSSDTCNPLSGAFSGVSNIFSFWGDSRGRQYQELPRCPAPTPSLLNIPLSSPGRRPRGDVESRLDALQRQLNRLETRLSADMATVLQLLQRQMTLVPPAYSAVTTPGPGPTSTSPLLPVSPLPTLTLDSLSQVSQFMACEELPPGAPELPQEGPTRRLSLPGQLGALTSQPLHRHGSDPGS

Compound: CC1CCNc2c(C(=O)NC/C=C/S(C)(=O)=O)cccc21 (stereo not given)
- pEC50 (Chikungunya virus [1]): 6.41
- Vz [2]: 4.5 L/kg
- MRT [3]: 3.6 min
- Cmax [4]: 125 ng/mL
- MRT [5]: 4.25 h
- Survival (Chikungunya virus [6]): Active
- Survival (Chikungunya virus [7]): Active
- Activity (Chikungunya virus [8]): 23.7%
- Activity (Chikungunya virus [9]): 14.1%
- Activity (Chikungunya virus [10]): 5.3
- Activity (Chikungunya virus [11]): 5.8
- Activity [12]: 28 U/L
- Activity [13]: 0.35 mg/dL
- Activity [14]: 0.34 mg/dL
- TDI [15]: Active
- CLH [16]: < 57.8 µL/min/mg
- t1/2 [17]: > 120 min
- CLH [18]: 22.7 µL/min/mg
- EC90 (Chikungunya virus [19]): 1600 nM
- pIC50 (Cytochrome P450 2C8): < 4.00
- pIC50 (Cytochrome P450 2D6): < 4.00
- pIC50 (Cytochrome P450 3A4): < 4.00
- IC50 (Cytochrome P450 3A): < 0.03 µM
- pIC50 [20]: < 4.00
- pIC50 [21]: < 4.00
